Test results as given in US7745481B2, “Methods and compositions for the treatment and prevention of tumors, tumor-related disorders and cachexia” (Daiichi Sankyo Company, Limited, priority 1997, dated 2010).

Assays:
[1] = tested on: mouse colon cancer Colon 26 cells; experiment: Test of anticachexia effects in mice bearing mouse colon cancer Colon 26 cells; type: in vivo; conditions: 15 days after tumor transplantation, female CDF1 mice 7 weeks old, control −3.4
[2] = tested on: mouse colon cancer Colon 26 cells; experiment: Life-prolonging activity test in mice bearing Colon 26 cells; type: in vivo; conditions: for Life-prolongation (in words): Example 7, animals of Examples 3 and 4, present tense, no data; for Survival Period (median: days): mice of Example 2 (16 weeks old), untreated 23.0; for Life-prolonging Index (%): mice of Example 2, (St/Sc−1)×100
Method: Observation of the mice used in Example 1 above was continued. The life-prolonging index was determined, based on the number of days each mouse survived, and this value was then used as an indicator of the life-prolonging effects of the test compounds.
It should be noted that, in the case of the group of mice treated with a test compound, oral administration of the respective compound once daily was continued on day 20 after tumor cell transplantation and beyond as well. Life-prolonging index (%)=(St/Sc−1)×100 • St: Median value of survival time (days) of the group of mice treated with a test compound • Sc: Median value of survival time (days) of the control group which were […].
The experiment reported in Example 5 was repeated with the animals used in Example 2. In the case of the group of mice treated with a test compound, oral administration of the respective compound once daily was continued on day 23 after tumor cell transplantation and beyond as well.
The experiment reported in Example 5 is repeated with the animals used in Examples 3 and 4.

[3] = tested on: mouse colon cancer Colon 26 cells; experiment: Test of anticachexia effects in mice bearing mouse colon cancer Colon 26 cells; type: in vivo; conditions: for Inhibition of mouse tumor cachexia and weight loss (in words): Examples 1-3, 1-10 mg/kg oral; for Average Weight Gain (Δg): 22 days after tumor transplantation, female CDF1 mice 16 weeks old, control −4.2; for Inhibition of mouse tumor cachexia and recovery of body weight loss (in words): Example 4, written in present tense, no data
Excerpt: The test animals were CDF1 mice (females, 8 weeks old). They were employed in groups of 10 for each test. 1×10^6 mouse colon cancer Colon 26 cells were transplanted subcutaneously into each animal.
The test compounds were Compounds No. 1-94 and 2-78 as shown above in Tables 1 and 2, respectively, and having the following formulae: […]
Each test compound was suspended in sterilized distilled water containing 0.5% w/v carboxymethyl cellulose (CMC) and administered orally once per day starting on the day of the tumor cell transplantation.
Each test animal was weighed immediately after tumor cell transplantation, and the weight (A g) was recorded. Each animal was then weighed on day 19 after tumor cell transplantation, and the weight (B g) was recorded. The weight gain on day 19 after tumor cell transplantation was calculated as B−A=Δgt for the test animals. The experiment was repeated with two control groups: the first control group (control group 1) was transplanted with the tumor cells but were not treated with any test compound, and the weight gain is reported as Δgc1; the second control group (control group 2) were not transplanted with the tumor cells and were not treated with any test compound, and the weight gain is reported as Δgc2. The body weight recovery rate was determined according to the following formula based on the weight gain on day 19 after tumor cell transplantation, and this value was used as an indicator of the anticachexia effect. Body weight recovery rate (%)=(Δgt−Δgc1)/(Δgc2−Δgc1)×100
(§1) The procedure described in Example 1 was repeated, but using the compound of formula (III) as the test compound, and comparing the weight gain (Δgt) of the test group of animals to which the compound of formula (III) had been administered with a control group (Δgc) into which the tumor cells had been transplanted but to which no anti-tumor compound had been administered. The test animals were female CDF1 mice, 16 weeks old. Also, the weight gain was measured 22 days after tumor transplantation. The average body weight of each group of animals immediately after tumor transplantation was 25 to 26 g.
as §1, with “Example 2” for “Example 1”, “formula (IV)” for “formula (III)”, “mice, 7” for “mice, 16”, “measured 15” for “measured 22”, “was 20” for “was 25”, “to 21” for “to 26”
Test compounds [the compounds of formula (V), (VI), (VII), (VIII), (IX), (X), (XI), (XII), (XIII) and (XIV)] are administered in the same manner as described in Example 2.

[4] = tested on: mouse malignant melanoma B16-BL6 cells; experiment: Inhibitory effect on lung metastasis of mouse malignant melanoma B16-BL6 cells; type: in vivo; conditions: for Inhibition of lung metastasis (in words): 1 mg/kg oral, lung metastasis accelerating conditions (LPS); for LMI (%) lung metastasis inhibitory rate: 1 mg/kg per day oral for five days, colonies counted on 10th day, C57BL/6 mice
Method: Groups of mice, each group containing ten C57BL/6 mice (female, age: 8 weeks) were transplanted intravenously into the tail vein with 3×10^4 of mouse malignant melanoma B16-BL6 cells.
The mice were, when necessary, administered intravenously into the tail vein with a bacterial lipopolysaccharide (LPS) in an amount of 3 μg each within one hour before transplantation of the melanoma cells so as to accelerate lung metastasis of the melanoma [M. J. Anasagasti et al., J. Natl. Cancer Research, 89, 645-651 (1997).]
As test compounds, Compound No. 2-118, a compound of formula (IV), a compound of formula (V) and indomethacin were employed, and each was suspended in sterilized distilled water containing 0.5% w/v of carboxymethyl cellulose (CMC), and the suspensions were orally administered at a dose of 1 mg/kg per day for five days starting from the day of the melanoma cell transplantation.
Inhibitory activities on lung metastasis of the melanoma cells were evaluated in terms of the lung metastasis inhibitory rate (LMI %) by counting the number of metastatic colonies in the lung on the 10th day after intravenous transplantation of the mouse malignant melanoma B16-BL6 cells at the tail. LMI(%)=(1−Nt/Nc)×100 • Nt: Numbers of lung metastatic colonies on the 10th day in groups administered with the test compounds; and • Nc: Numbers of lung metastatic colonies on the 10th day in control groups which were not administered with the test compounds.

[5] = tested on: experimental colonic polyposis; conditions: literature (Oshima 1996; Reddy 1996); cited from earlier work
[6] = tested on: human colon cancer cell lines; conditions: literature (Sheng 1997); COX-2 expressing line HCA-7; cited from earlier work
[7] = tested on: mouse sarcoma S-180 cells; experiment: Antitumor effect against mouse sarcoma S-180 cells; type: in vivo; conditions: 1 mg/kg oral once per day for 5 days; tumor volume on day 7; Balb/c nude mice
Method: 1×10^6 mouse sarcoma S-180 cells were transplanted subcutaneously in Balb/c nude mice (females, 8 weeks old) in groups of 10 each.
The test compound, Compound No. 2-118, was suspended in sterilized distilled water containing 0.5% w/v carboxymethyl cellulose (CMC) and administered orally once per day for 5 days starting on the day the tumor cells were transplanted.
Antitumor activity was assessed according to the following equation to determine the tumor growth inhibitory rate (GI %) on day 7 after the transplantation. GI(%)=(1−Vt/Vc)×100 • Vt: Mean tumor volume on day 7 in a group administered test compound (*) • Vc: Mean tumor volume on day 7 in an untreated control group (*) • *: Tumor volume is defined as ½×[tumor long axis]×[tumor short axis]^2

[8] = tested on: Human colon cancer KM12-HX cells; experiment: Antitumor effect against human colon cancer KM12-HX cells (orthotopic transplant in nude mice); type: in vivo, mouse; conditions: 9 doses (days 3-7 and 10-13), tumor weight on day 14, Balb/c nude mice
Excerpt: Human colon cancer KM12-HX cells were orthotopically transplanted into the cecum of nude mice according to the method of Fu et al. [X. Fu et al., Anticancer Res., 12 (1992)] using Balb/c nude mice (females, 7 weeks old) in groups of 10 each.
Specifically, an incision was made into the left lower abdominal region of each mouse under Abacin anesthesia, after which a thin section of tumor measuring 5 mm on a side was sutured to the cecum using absorbable surgical sutures to perform orthotopic transplant. The incision was sutured using absorbable surgical sutures and the mice were warmed and promptly awakened from anesthesia.
The test compound was suspended in sterilized distilled water containing 0.5% w/v carboxymethyl cellulose (CMC) and administered orally in a total of 9 doses consisting of one dose per day from days 3 to 7 after the tumor cell transplantation and from days 10 to 13 after the transplantation.
Antitumor activity was assessed according to the following equation to determine the tumor weight inhibitory rate (GI %) on day 14 after the transplantation. GI(%)=(1−Vt′/Vc′)×100 • Vt′: Mean tumor weight on day 14 in the group administered the test compound • Vc′: Mean tumor weight on day 14 in an untreated control group

[9] = LPS 3 μg i.v. before transplantation

## Cc1ccc(-c2cc(C(F)(F)F)nn2-c2ccc(S(N)(=O)=O)cc2)cc1 [Compound (IV), 4-(5-p-tolyl-3-trifluoromethyl-1H-pyrazol-1-yl)benzenesulfonamide]
[1]; 1 mg/kg oral once per day
  Average Weight Gain (Δg): -1.2 g
[1]; 3 mg/kg oral once per day
  Average Weight Gain (Δg): -1.3 g
[1]; 10 mg/kg oral once per day
  Average Weight Gain (Δg): -0.6 g
[2]
  Life-prolongation (in words): exhibit pronounced life-prolongation
[3]
  Inhibition of mouse tumor cachexia and weight loss (in words): inhibited mouse tumor cachexia and reduced weight loss
[4]
  Inhibition of lung metastasis (in words): had no such inhibitory activity
[4]; [9]
  LMI (%) lung metastasis inhibitory rate: 9%

## CS(=O)(=O)c1ccc(C2=C(c3ccc(F)c(F)c3)C(=O)OC2)cc1 [MF-tricyclic]
[5]
  Inhibition of occurrence of experimental colonic polyposis (in words): inhibit the occurrence of experimental colonic polyposis

## CS(=O)(=O)c1ccc(-n2nc(C(F)(F)F)cc2-c2ccc(F)cc2)cc1 [SC-58125]
[6]
  Growth inhibitory effects against human colon cancer cell lines (in words): exhibits growth inhibitory effects against certain types of human colon cancer cell lines

## Cc1cc(-c2ccc(C)c(C)c2)n(-c2ccc(S(N)(=O)=O)cc2)c1 [Compound 2-118, 2-(3,4-dimethylphenyl)-4-methyl-1-(4-sulfamoylphenyl)pyrrole]
[7]
  GI (%) tumor growth inhibitory rate: 54%
[8]; 0.3 mg/kg oral
  GI(%) tumor weight inhibitory rate: 12%
[8]; 1 mg/kg oral
  GI(%) tumor weight inhibitory rate: 35%
[8]; 3 mg/kg oral
  GI(%) tumor weight inhibitory rate: 45%
[8]; 10 mg/kg oral
  GI(%) tumor weight inhibitory rate: 59%
[4]; [9]
  LMI (%) lung metastasis inhibitory rate: 34%
[4]; no LPS administration
  LMI (%) lung metastasis inhibitory rate: 64%

## CS(=O)(=O)c1ccc(C2=C(c3ccc(F)c(F)c3)C(=O)OC2)cc1 [Compound (III), 3-(3,4-difluorophenyl)-4-(4-methanesulfonylphenyl)-5H-furan-2-one]
[2]; 1 mg/kg oral once daily
  Survival Period (median: days): 40.5 days
  Life-prolonging Index (%): 76%
[2]; 3 mg/kg oral once daily
  Survival Period (median: days): 37.5 days
  Life-prolonging Index (%): 63%
[2]; 10 mg/kg oral once daily
  Survival Period (median: days): 43.5 days
  Life-prolonging Index (%): 91%
[3]; 1 mg/kg oral once per day
  Average Weight Gain (Δg): 0.0 g
[3]; 3 mg/kg oral once per day
  Average Weight Gain (Δg): 0.3 g
[3]; 10 mg/kg oral once per day
  Average Weight Gain (Δg): 0.9 g
[3]
  Inhibition of mouse tumor cachexia and weight loss (in words): inhibited mouse tumor cachexia and reduced weight loss

## COc1ccc2c(c1)c(CC(=O)O)c(C)n2C(=O)c1ccc(Cl)cc1 [Indomethacin, reference compound]
[4]
  Inhibition of lung metastasis (in words): had no such inhibitory activity
[4]; [9]
  LMI (%) lung metastasis inhibitory rate: −1%

## CS(=O)(=O)c1ccc(C2=C(c3ccc(F)cc3)CCC2)cc1 [(XI), 1-(4-methanesulfonylphenyl)-2-(4-fluorophenyl)cyclopentene]
[2]
  Life-prolongation (in words): exhibit pronounced life-prolongation
[3]
  Inhibition of mouse tumor cachexia and recovery of body weight loss (in words): inhibit mouse tumor cachexia and recover loss of average of body weight

## CS(=O)(=O)Nc1cc2c(cc1Sc1ccc(F)cc1F)C(=O)CC2 [Compound (V), N-[6-(2,4-difluorophenylthio)-1-oxoindan-5-yl]methanesulfonamide]
[2]
  Life-prolongation (in words): exhibit pronounced life-prolongation
[3]
  Inhibition of mouse tumor cachexia and recovery of body weight loss (in words): inhibit mouse tumor cachexia and recover loss of average of body weight
[4]
  Inhibition of lung metastasis (in words): had no such inhibitory activity
[4]; [9]
  LMI (%) lung metastasis inhibitory rate: 1%

## CS(=O)(=O)Nc1cc2occ(NC=O)c(=O)c2cc1Oc1ccccc1 [(IX), N-(3-formylamino-4-oxo-6-phenoxy-4H-1-benzopyran-7-yl)methanesulfonamide]
[2]
  Life-prolongation (in words): exhibit pronounced life-prolongation
[3]
  Inhibition of mouse tumor cachexia and recovery of body weight loss (in words): inhibit mouse tumor cachexia and recover loss of average of body weight

## Cc1cnc(NC(=O)C2=C(O)c3ccccc3S(=O)(=O)N2C)s1 [(VI), 4-hydroxy-2-methyl-N-(5-methylthiazol-2-yl)-2H-1,2-benzothiazine-3-carboxamide-1,1-dioxide]
[2]
  Life-prolongation (in words): exhibit pronounced life-prolongation
[3]
  Inhibition of mouse tumor cachexia and recovery of body weight loss (in words): inhibit mouse tumor cachexia and recover loss of average of body weight
